What all share (test): Competitive isoTOP-ABPP in situ (fragment-treated cells)
Holding throughout (type): cell-based
What all share (conditions): 200 μM, insitu, 231

Assay [1] deals with cysteines in MDA-MB-231 and Ramos cells (Homo sapiens, UniProt O60610).
Assay [2] addresses cysteines in MDA-MB-231 and Ramos cells (Homo sapiens, UniProt P62888).
For assay [3], the target named is cysteines in MDA-MB-231 and Ramos cells (Homo sapiens, UniProt Q9BXW7).
The target of assay [4] is T1, cysteines in MDA-MB-231 and Ramos cells (Homo sapiens, UniProt Q9NQR4).
T1 sequence (Q9NQR4 1-276): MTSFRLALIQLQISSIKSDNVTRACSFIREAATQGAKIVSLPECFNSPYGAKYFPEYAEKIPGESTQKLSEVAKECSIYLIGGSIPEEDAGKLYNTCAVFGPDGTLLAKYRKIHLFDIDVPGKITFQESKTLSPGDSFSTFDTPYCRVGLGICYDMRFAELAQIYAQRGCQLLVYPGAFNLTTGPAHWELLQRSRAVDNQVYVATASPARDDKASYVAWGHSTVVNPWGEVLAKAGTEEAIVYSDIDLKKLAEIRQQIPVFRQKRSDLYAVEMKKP

Assay [5] addresses T2, cysteines in MDA-MB-231 and Ramos cells (Homo sapiens, UniProt Q29RF7).
T2 sequence (Q29RF7 1-1337): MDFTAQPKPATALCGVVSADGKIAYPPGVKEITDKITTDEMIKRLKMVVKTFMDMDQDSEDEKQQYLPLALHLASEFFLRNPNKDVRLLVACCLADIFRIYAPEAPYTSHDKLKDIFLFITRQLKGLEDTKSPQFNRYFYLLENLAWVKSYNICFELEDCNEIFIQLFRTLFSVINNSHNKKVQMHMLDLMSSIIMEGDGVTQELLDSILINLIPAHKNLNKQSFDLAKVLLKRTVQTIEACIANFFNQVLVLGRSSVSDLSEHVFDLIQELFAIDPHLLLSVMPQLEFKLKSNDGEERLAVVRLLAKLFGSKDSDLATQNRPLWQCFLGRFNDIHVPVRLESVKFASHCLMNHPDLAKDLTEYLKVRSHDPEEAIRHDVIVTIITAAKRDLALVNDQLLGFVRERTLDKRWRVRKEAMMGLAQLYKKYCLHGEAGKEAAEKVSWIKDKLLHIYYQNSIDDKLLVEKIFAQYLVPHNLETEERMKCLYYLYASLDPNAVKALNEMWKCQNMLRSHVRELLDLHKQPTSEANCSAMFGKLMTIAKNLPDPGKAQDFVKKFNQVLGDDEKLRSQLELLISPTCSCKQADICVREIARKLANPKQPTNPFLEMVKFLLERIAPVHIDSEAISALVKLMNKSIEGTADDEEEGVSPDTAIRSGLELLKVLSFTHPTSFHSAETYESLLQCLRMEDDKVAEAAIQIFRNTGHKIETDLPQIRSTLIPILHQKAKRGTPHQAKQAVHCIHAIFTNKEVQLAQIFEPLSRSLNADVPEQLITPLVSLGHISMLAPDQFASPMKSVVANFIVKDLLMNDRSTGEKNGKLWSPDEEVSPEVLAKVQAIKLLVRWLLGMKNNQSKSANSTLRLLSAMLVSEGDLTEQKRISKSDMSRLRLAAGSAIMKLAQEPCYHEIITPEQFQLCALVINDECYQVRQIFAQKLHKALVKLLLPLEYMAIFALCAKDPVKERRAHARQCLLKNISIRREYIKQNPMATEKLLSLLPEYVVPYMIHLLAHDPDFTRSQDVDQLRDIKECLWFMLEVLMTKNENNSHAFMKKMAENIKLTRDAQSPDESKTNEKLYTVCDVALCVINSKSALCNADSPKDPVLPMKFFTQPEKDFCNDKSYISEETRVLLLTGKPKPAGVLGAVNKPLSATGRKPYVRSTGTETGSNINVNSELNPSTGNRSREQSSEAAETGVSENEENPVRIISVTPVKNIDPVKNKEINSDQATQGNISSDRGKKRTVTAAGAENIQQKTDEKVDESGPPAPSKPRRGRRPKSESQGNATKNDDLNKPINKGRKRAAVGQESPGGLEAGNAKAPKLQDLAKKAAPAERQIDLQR

Assay [6] addresses T3, cysteines in MDA-MB-231 and Ramos cells (Homo sapiens, UniProt P49588).
T3 sequence (P49588 1-968): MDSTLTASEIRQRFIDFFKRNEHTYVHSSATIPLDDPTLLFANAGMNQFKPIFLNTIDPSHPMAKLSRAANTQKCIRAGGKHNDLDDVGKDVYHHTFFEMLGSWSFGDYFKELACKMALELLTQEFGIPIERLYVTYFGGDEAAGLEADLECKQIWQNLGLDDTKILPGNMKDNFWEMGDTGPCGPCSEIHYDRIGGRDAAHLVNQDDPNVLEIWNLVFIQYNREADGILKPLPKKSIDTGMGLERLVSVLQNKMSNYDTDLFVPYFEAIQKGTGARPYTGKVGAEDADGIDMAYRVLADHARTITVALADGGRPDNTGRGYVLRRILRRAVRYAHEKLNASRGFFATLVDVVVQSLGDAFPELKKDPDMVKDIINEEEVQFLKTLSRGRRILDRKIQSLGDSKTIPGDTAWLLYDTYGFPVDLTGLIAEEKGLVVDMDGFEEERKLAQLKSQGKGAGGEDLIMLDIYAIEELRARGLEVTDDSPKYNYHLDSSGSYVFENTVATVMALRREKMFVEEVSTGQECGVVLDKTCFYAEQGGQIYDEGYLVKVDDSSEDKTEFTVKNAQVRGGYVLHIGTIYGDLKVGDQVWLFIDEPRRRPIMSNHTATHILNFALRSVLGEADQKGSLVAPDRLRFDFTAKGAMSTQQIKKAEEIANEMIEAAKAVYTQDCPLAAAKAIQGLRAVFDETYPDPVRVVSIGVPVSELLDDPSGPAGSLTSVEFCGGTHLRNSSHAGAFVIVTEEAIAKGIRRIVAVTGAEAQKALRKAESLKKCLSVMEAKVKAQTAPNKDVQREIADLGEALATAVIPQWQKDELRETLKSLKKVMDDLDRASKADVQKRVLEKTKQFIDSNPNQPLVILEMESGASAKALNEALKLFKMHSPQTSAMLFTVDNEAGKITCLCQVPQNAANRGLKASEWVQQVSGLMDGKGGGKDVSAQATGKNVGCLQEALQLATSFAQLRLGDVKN

Sequence of cysteines in MDA-MB-231 and Ramos cells (Homo sapiens, UniProt Q9BXW7) (Q9BXW7 24-423): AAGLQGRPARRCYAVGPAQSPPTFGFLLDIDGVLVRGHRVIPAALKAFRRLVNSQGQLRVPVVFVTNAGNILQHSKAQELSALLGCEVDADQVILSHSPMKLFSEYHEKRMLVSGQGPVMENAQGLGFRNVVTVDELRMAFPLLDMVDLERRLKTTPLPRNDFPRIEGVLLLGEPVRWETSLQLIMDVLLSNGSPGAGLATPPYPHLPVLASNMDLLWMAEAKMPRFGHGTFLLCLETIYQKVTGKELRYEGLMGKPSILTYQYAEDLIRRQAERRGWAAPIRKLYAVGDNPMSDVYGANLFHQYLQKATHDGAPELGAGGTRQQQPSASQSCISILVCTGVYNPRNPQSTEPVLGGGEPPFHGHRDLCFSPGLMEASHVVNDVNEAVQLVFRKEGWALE
Sequence of cysteines in MDA-MB-231 and Ramos cells (Homo sapiens, UniProt O60610) (O60610 whole entry): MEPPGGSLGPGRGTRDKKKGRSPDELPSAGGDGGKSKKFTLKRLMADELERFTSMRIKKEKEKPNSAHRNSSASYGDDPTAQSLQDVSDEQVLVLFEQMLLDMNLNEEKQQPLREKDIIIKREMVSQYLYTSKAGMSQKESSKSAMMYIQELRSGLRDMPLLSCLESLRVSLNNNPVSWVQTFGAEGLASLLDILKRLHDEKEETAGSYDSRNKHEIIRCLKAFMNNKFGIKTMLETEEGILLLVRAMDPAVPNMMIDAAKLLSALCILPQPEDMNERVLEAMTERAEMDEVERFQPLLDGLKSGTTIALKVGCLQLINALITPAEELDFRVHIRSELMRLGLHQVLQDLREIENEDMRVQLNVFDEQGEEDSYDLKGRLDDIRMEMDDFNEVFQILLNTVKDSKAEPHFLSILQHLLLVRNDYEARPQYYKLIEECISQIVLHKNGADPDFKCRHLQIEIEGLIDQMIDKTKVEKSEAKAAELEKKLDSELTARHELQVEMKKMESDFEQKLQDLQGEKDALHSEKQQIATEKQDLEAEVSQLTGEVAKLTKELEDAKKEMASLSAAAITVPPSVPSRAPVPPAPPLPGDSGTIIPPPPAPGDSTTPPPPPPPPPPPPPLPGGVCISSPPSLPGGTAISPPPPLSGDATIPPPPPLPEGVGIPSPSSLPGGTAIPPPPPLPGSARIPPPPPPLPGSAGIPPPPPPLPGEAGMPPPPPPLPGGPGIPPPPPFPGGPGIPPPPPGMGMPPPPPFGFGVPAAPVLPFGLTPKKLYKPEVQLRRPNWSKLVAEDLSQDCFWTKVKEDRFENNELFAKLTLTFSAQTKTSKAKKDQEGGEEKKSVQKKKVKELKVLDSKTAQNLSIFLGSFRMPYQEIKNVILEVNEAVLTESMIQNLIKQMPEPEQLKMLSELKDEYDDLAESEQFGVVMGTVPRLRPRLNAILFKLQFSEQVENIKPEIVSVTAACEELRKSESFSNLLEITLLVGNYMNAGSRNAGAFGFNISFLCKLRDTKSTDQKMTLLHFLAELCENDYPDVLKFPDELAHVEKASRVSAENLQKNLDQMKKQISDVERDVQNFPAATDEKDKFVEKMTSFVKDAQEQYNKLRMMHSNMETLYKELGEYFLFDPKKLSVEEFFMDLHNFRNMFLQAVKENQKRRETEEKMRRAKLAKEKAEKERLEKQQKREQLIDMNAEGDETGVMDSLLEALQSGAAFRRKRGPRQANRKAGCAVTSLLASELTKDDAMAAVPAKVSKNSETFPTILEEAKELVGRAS

Regarding `C=CC(=O)Nc1cc(F)c(N2CCN(C(=O)OC(C)(C)C)CC2)c(F)c1` [compound 38], the “isoTOP-ABPP ratio O60610_C1227” value in assay [1] came to 0.3. Also, the “isoTOP-ABPP ratio P62888_C92” value in assay [2] is 3.2. For the same molecule, the “isoTOP-ABPP ratio Q9BXW7_C392” value in assay [3] worked out at 0.8. Also, the “isoTOP-ABPP ratio Q9NQR4_C153” value in assay [4] came to 1.1. Besides, the “isoTOP-ABPP ratio Q29RF7_C242” value in assay [5] is 1.0. Besides, in assay [6], the “isoTOP-ABPP ratio P49588_C773” value is 0.7.

Consider `Cc1ccc(C=C(C#N)C(=O)NCCN2CCOCC2)cc1` [compound 41], for which the “isoTOP-ABPP ratio O60610_C1227” value in assay [1] stood at 0.6. Besides, the “isoTOP-ABPP ratio P62888_C92” value in assay [2] worked out at 0.8. Moreover, the “isoTOP-ABPP ratio Q9BXW7_C392” value in assay [3] is listed as 1.0. Besides, the “isoTOP-ABPP ratio Q9NQR4_C153” value in assay [4] came out at 0.7. Further, the “isoTOP-ABPP ratio Q29RF7_C532” value in assay [5] was 0.8. Besides, the “isoTOP-ABPP ratio P49588_C773” value in assay [6] was 0.7.

These data come from patent US10670605B2, “Cysteine reactive probes and uses thereof” (The Scripps Research Institute, priority 2015, dated 2020).
